molecular target: T1, SYK kinase (Homo sapiens, UniProt P43405); test: SYK Assay (OMNIA KINASE ASSAY, SOX peptide fluorescence); type: biochemical; details: apparent Ki calculated from the IC50 using the Cheng-Prusoff equation; 1 mM ATP, 30° C.; read-out: SYK Activities: Ki
T1 construct: purchased Invitrogen, Carlsbad
Protocol: In the assay OMNIA® KINASE ASSAY by Invitrogen Corporation (Carlsbad) the effect of invention of a compound on the phosphorylation is determined by measurement of fluorescence intensity of a chelation-enhanced fluorophore called SOX. Upon phosphorylation of the peptide by the kinase of interest, Mg2+ is chelated to form a bridge between the SOX moiety and the phosphate group that is transferred to the specific tyrosine on the peptide. The fluorescence intensity is directly proportional to the amount of peptide phosphorylation.
To the wells of an 384 well small volume plate (Greiner, Frickenhausen) are added (i) the compound under test in 5% DMSO/distilled water (2 μl), (ii) 16 μl of the master mix containing ATP, DTT, Kinase Reaction Buffer, Omina Peptide Substrate Tyr 7 resulting in a final concentration of 1 mM ATP, 0.2 mM DTT and 10 μM Peptide Substrate.
The Master Mix and the assay plate was incubated to reaction temperature before the measurement (30° C.). The reaction was started with addition of (iii) 2 μl 4 μg/ml SYK kinase (Invitrogen, Carlsbad). During measurement fluorescence intensitiy readings were collected using a TECAN M1000 at a wavelength of λex 360/λem 485 nm every 30 s for 30 minutes. The reaction velocity was plotted versus the inhibitor concentration to determine the […] using XLFit 5.0 (IDBS, Guildford) to fit to a sigmoidal dose response curve, and the apparent Ki values were calculated from the IC50 using the Cheng-Prusoff equation (Cheng, Y.; Prusoff, W. H. Biochem. Pharmacol. 22, 3099-3108, 1973).

SMILES | Ki [nM]
CN(C)c1ccc(Nc2nc(-c3ccc(N4CCCC4)nc3)nc3cn[nH]c23)cc1 [Example #31, N1,N1-dimethyl-N4-(5-(6-(pyrrolidin-1-yl)pyridin-3-yl)-1H-pyrazolo[4,3-d]pyrimidin-7-yl)benzene-1,4-diamine] | < 10
COc1ccc(Nc2nc(-c3cccc(SC)c3)nc3cn[nH]c23)cc1OC [Example #223, N-(3,4-dimethoxyphenyl)-5-(3-(methylthio)phenyl)-1H-pyrazolo[4,3-d]pyrimidin-7-amine] | 10 to 100
COc1ccc(Nc2nc(C(=O)c3ccccc3)nc3cn[nH]c23)cc1OC [Example #153, (7-((3,4-dimethoxyphenyl)amino)-1H-pyrazolo[4,3-d]pyrimidin-5-yl)(phenyl)methanone] | 100 to 1000
c1cc(-c2nc(Nc3ccc(N4CCOCC4)cc3)c3[nH]ncc3n2)ccn1 [Example #19, N-(4-morpholinophenyl)-5-(pyridin-4-yl)-1H-pyrazolo[4,3-d]pyrimidin-7-amine] | 10 to 100
CCN1CCN(c2ccc(Nc3nc(-c4cn5ccccc5n4)nc4cn[nH]c34)cc2)CC1 [Example #125, N-(4-(4-ethylpiperazin-1-yl)phenyl)-5-(imidazo[1,2-a]pyridin-2-yl)-1H-pyrazolo[4,3-d]pyrimidin-7-amine] | 10 to 100
CC(=O)N1CCN(c2ccc(Nc3nc(-c4ccc5c(c4)NC(=O)CO5)nc4cn[nH]c34)cc2)CC1 [Example #298, 6-(7-((4-(4-acetylpiperazin-1-yl)phenyl)amino)-1H-pyrazolo[4,3-d]pyrimidin-5-yl)-2H-benzo[b][1,4]oxazin-3(4H)-one] | < 10
CN(C)Cc1cccc(Nc2nc(-c3ccccc3F)nc3cn[nH]c23)c1 [Example #312, N-(3-((dimethylamino)methyl)phenyl)-5-(2-fluorophenyl)-1H-pyrazolo[4,3-d]pyrimidin-7-amine] | 100 to 1000
CN1CCN(c2ccc(Nc3nc(-c4cccc(C(=O)O)n4)nc4cn[nH]c34)cc2)CC1 [Example #177, 6-(7-((4-(4-methylpiperazin-1-yl)phenyl)amino)-1H-pyrazolo[4,3-d]pyrimidin-5-yl)picolinic acid] | 10 to 100
O=S(=O)(c1cccc(Nc2nc(-c3cccs3)nc3cn[nH]c23)c1)N1CCOCC1 [Example #266, N-(3-(morpholinosulfonyl)phenyl)-5-(thiophen-2-yl)-1H-pyrazolo[4,3-d]pyrimidin-7-amine] | 100 to 1000
COc1ccc(-c2nc(Nc3ccc(N4CCSCC4)cc3)c3[nH]ncc3n2)cc1 [Example #168, 5-(4-methoxyphenyl)-N-(4-thiomorpholinophenyl)-1H-pyrazolo[4,3-d]pyrimidin-7-amine] | 10 to 100
COc1ccc(OC)c(-c2nc(Nc3ccc(N4CCN(C5CC5)CC4)cc3)c3[nH]ncc3n2)c1 [Example #123, N-(4-(4-cyclopropylpiperazin-1-yl)phenyl)-5-(2,5-dimethoxyphenyl)-1H-pyrazolo[4,3-d]pyrimidin-7-amine] | 10 to 100
c1csc(-c2nc(Nc3cc(C4CC4)[nH]n3)c3[nH]ncc3n2)c1 [Example #90, N-(5-cyclopropyl-1H-pyrazol-3-yl)-5-(thiophen-2-yl)-1H-pyrazolo[4,3-d]pyrimidin-7-amine] | 10 to 100
COc1ccc(Nc2nc(-c3ccc4c(c3)NC(=O)CO4)nc3cn[nH]c23)cc1OC [Example #299, 6-(7-((3,4-dimethoxyphenyl)amino)-1H-pyrazolo[4,3-d]pyrimidin-5-yl)-2H-benzo[b][1,4]oxazin-3(4H)-one] | 10 to 100
c1csc(-c2nc(Nc3ccc(-n4nccn4)cc3)c3[nH]ncc3n2)c1 [Example #263, N-(4-(2H-1,2,3-triazol-2-yl)phenyl)-5-(thiophen-2-yl)-1H-pyrazolo[4,3-d]pyrimidin-7-amine] | 100 to 1000
COc1ccc(Nc2nc(-c3cccc(Cl)c3)nc3cn[nH]c23)cc1OC [Example #230, 5-(3-chlorophenyl)-N-(3,4-dimethoxyphenyl)-1H-pyrazolo[4,3-d]pyrimidin-7-amine] | 10 to 100
CN1CCC(c2nc(Nc3ccc4c(c3)NC(=O)CO4)c3[nH]ncc3n2)CC1 [Example #54, 6-((5-(1-methylpiperidin-4-yl)-1H-pyrazolo[4,3-d]pyrimidin-7-yl)amino)-2H-benzo[b][1,4]oxazin-3(4H)-one] | < 10
FC(F)(F)c1cccc(-c2nc(Nc3ccc(N4CCOCC4)cc3)c3[nH]ncc3n2)c1 [Example #229, N-(4-morpholinophenyl)-5-(3-(trifluoromethyl)phenyl)-1H-pyrazolo[4,3-d]pyrimidin-7-amine] | 10 to 100
CN1CCN(c2ccc(Nc3nc(-c4ncc[nH]4)nc4cn[nH]c34)cc2)CC1 [Example #141, 5-(1H-imidazol-2-yl)-N-(4-(4-methylpiperazin-1-yl)phenyl)-1H-pyrazolo[4,3-d]pyrimidin-7-amine] | 10 to 100
COc1ccc(Nc2nc(-c3cccc(C(F)(F)F)c3)nc3cn[nH]c23)cc1OC [Example #228, N-(3,4-dimethoxyphenyl)-5-(3-(trifluoromethyl)phenyl)-1H-pyrazolo[4,3-d]pyrimidin-7-amine] | 10 to 100
CN1CCC(c2nc(Nc3ccc(Cl)cc3)c3[nH]ncc3n2)CC1 [Example #29, N-(4-chlorophenyl)-5-(1-methylpiperidin-4-yl)-1H-pyrazolo[4,3-d]pyrimidin-7-amine] | 10 to 100
c1cc2ncc(-c3nc(Nc4ccc(N5CCOCC5)cc4)c4[nH]ncc4n3)cc2[nH]1 [Example #258, N-(4-morpholinophenyl)-5-(1H-pyrrolo[3,2-b]pyridin-6-yl)-1H-pyrazolo[4,3-d]pyrimidin-7-amine] | 10 to 100

Next, values leading:

Ki [nM] | SMILES
10 to 100 | c1ccc(-c2nc(Nc3cc[nH]n3)c3[nH]ncc3n2)cc1 [Example #38, 5-phenyl-N-(1H-pyrazol-3-yl)-1H-pyrazolo[4,3-d]pyrimidin-7-amine]
10 to 100 | CN1CCN(c2ccc(Nc3nc(C(=O)c4ccccc4)nc4cn[nH]c34)cc2)CC1 [Example #152, (7-((4-(4-methylpiperazin-1-yl)phenyl)amino)-1H-pyrazolo[4,3-d]pyrimidin-5-yl)(phenyl)methanone]
100 to 1000 | COC(=O)c1ccc(-c2nc(Nc3ccc4c(c3)NC(=O)CC4)c3[nH]ncc3n2)cc1 [Example #215, methyl 4-(7-((2-oxo-1,2,3,4-tetrahydroquinolin-7-yl)amino)-1H-pyrazolo[4,3-d]pyrimidin-5-yl)benzoate]
100 to 1000 | COc1ccccc1-c1nc(Nc2cc(C3CC3)[nH]n2)c2[nH]ncc2n1 [Example #113, N-(5-cyclopropyl-1H-pyrazol-3-yl)-5-(2-methoxyphenyl)-1H-pyrazolo[4,3-d]pyrimidin-7-amine]
10 to 100 | CN1CCC(c2nc(Nc3cccc(O)c3)c3[nH]ncc3n2)CC1 [Example #94, 3-((5-(1-methylpiperidin-4-yl)-1H-pyrazolo[4,3-d]pyrimidin-7-yl)amino)phenol]
10 to 100 | O=C1CSc2ccc(Nc3nc(-c4cccs4)nc4cn[nH]c34)cc2N1 [Example #165, 6-((5-(thiophen-2-yl)-1H-pyrazolo[4,3-d]pyrimidin-7-yl)amino)-2H-benzo[b][1,4]thiazin-3(4H)-one]
< 10 | COc1ccc(Nc2nc(-c3ccc(C(=O)O)cc3)nc3cn[nH]c23)cc1OC [Example #244, 4-(7-((3,4-dimethoxyphenyl)amino)-1H-pyrazolo[4,3-d]pyrimidin-5-yl)benzoic acid]
< 10 | c1cc2cn[nH]c2cc1Nc1nc(-c2ccc(N3CCCC3)nc2)nc2cn[nH]c12 [Example #30, N-(1H-indazol-6-yl)-5-(6-(pyrrolidin-1-yl)pyridin-3-yl)-1H-pyrazolo[4,3-d]pyrimidin-7-amine]
10 to 100 | O=C1COc2ccc(Nc3nc(-c4cccc(C(=O)O)c4)nc4cn[nH]c34)cc2N1 [Example #212, 3-(7-((3-oxo-3,4-dihydro-2H-benzo[b][1,4]oxazin-6-yl)amino)-1H-pyrazolo[4,3-d]pyrimidin-5-yl)benzoic acid]
100 to 1000 | O=S(=O)(c1cccc(Nc2nc(-c3cccs3)nc3cn[nH]c23)c1)C(F)(F)F [Example #267, 5-(thiophen-2-yl)-N-(3-((trifluoromethyl)sulfonyl)phenyl)-1H-pyrazolo[4,3-d]pyrimidin-7-amine]
100 to 1000 | N[C@@H]1CCCC[C@H]1Nc1nc(-c2ccsc2)nc2cn[nH]c12 [Example #115, (1R,2R)—N-(5-Thiophen-3-yl-1H-pyrazolo[4,3-d]pyrimidin-7-yl)-cyclohexane-1,2-diamine]
10 to 100 | COc1ccc(Nc2nc(-c3nc4ccccc4[nH]3)nc3cn[nH]c23)cc1OC [Example #129, 5-(1H-benzo[d]imidazol-2-yl)-N-(3,4-dimethoxyphenyl)-1H-pyrazolo[4,3-d]pyrimidin-7-amine]
10 to 100 | CSc1cccc(-c2nc(Nc3ccc4c(c3)NC(=O)CC4)c3[nH]ncc3n2)c1 [Example #236, 7-((5-(3-(methylthio)phenyl)-1H-pyrazolo[4,3-d]pyrimidin-7-yl)amino)-3,4-dihydroquinolin-2(1H)-one]

From patent US9802937B2, “Substituted pyrazolo{4,3-D}pyrimidines as kinase inhibitors” (ORIGENIS GMBH, priority 2011, dated 2017)
